Laboratory results: patent US20170146538A1, “PRL-3 AS A BIOMARKER FOR THE PROGNOSIS OF CANCER AND A TARGET FOR THERAPY” (Agency for Science, Technology and Research, priority 2014, published 2017)

Assays:
Format in all cases: cell-based, human
TF1-ITD cells = test: Western blot analysis of TF1-ITD cells upon FLT3 or Src inhibition; settings: various concentrations, 24 h, dose-dependent
Experimental: (§1) FIG. 2. […] Whole cell lysates were subjected to western blot analysis with indicated antibodies. GAPDH, loading control. A. (a-d) Western blot analysis of AML cells upon FLT3 inhibition. […] C. (a-b) Western blot analysis of AML cells upon Src inhibition.
(§2) Cells were lysed using modified RIPA buffer (50 mM Tris-HCl, 150 mM NaCl, 1% NP-40, pH 8.0, 1×protease inhibitor cocktail) and lysates were subjected to western blotting with indicated primary antibodies. Proteins recognized by the antibodies were detected using the Chemiluminescent Detection Kit (Pierce, Thermo Scientific, Rockford, Ill.).
(§3) Since STAT5 was known to be a critical downstream target of FLT3-ITD (Mizuki et al, 2000), we tested STAT5 expression level after treatment with FLT3-specific inhibitors; PKC412 or CEP-701 (Odgerel et al, 2007; Smith et al, 2004). […] We next examined whether FLT3-ITD-induced PRL-3 expression might be mediated by JAK or Src, two distinct upstream activators of STAT5 (Robinson et al, 2005; Spiekermann et al, 2003). […] To investigate the role of Src-mediated phosphorylation of STAT5 in FLT3-ITD positive AML cells. AML cells were treated with two distinct Src kinase inhibitors, SU6656 and PP2 (Blake et al, 2000; Nam et al, 2002).

MOLM-14 cells = test: Western blot analysis of MOLM-14 cells upon FLT3 inhibition; settings: various concentrations, 24 h, dose-dependent
Experimental: as §1, §2, §3

TF1-PRL-3 cells = test: MTS cell viability assay of TF1-PRL-3 cells treated with inhibitors; settings: 72 hr; for reduction in cell number compared to DMSO-treated control cells: 5 μM
Source text: FIG. 4. PRL-3 specifically activates c-Jun through ERK and JNK signaling pathways. A. SEAP reporter assay results measuring AP-1 activity in TF-1 cells overexpressing GFP (TF1-GFP) or GFP-PRL-3 (TF1-PRL-3) (mean±SD, n=3). B. (a-b) PRL-3 specifically upregulates c-Jun but not c-Fos. (a) Western blot analysis of TF1-GFP, TF1-PRL-3 and TF1-ITD cells. (b) Western blot analysis after knock-down of endogenous PRL-3 in TF1-ITD cells. GAPDH, loading control. NS, control non-silencing siRNA. C. (a-d) PRL-3-mediated upregulation of c-Jun is dependent on ERK and JNK pathways. (a) Western blot analysis after knock-down of endogenous PRL-3 in TF1-ITD and MOLM-14 cells. (b) Western blot analysis of TF1-GFP and TF1-PRL-3 cells. (c-d) Western blot analysis after knock-down of ERK1/2 or JNK in TF1-PRL-3 cells. GAPDH, loading control. NS, control non-silencing siRNA. D. […] Error bars represent the mean±SD from three independent experiments. AML Cells (1×10^4) were seeded into each well of 96-well tissue culture plates in 100 μl growth media and viable cells were measured after seeding with different inhibitors for 72 hr using the CellTiter^96 Aqueous cell proliferation assay kit. (Promega). Briefly, an aliquot of 20 μl MTS mixture was added at the indicated time of assay and reactions were performed at 37° C. for 2 hours. And absorbance was read at 490 nm wavelength using TECAN microplate reader. After establishment of linear relationship between cell numbers and absorbance from each cell line, acquired absorbance converted to cell number.

| SMILES | PRL-3 protein levels (TF1-ITD cells) | phosphorylation of STAT5 (TF1-ITD cells) | phosphorylation of Src (TF1-ITD cells) | reduction in cell number compared to DMSO-treated control cells (TF1-PRL-3 cells) | also measured |
| --- | --- | --- | --- | --- | --- |
| CO[C@@H]1[C@H](N(C)C(=O)c2ccccc2)C[C@H]2O[C@]1(C)n1c3ccccc3c3c4c(c5c6ccccc6n2c5c31)C(=O)NC4 [PKC412] | inhibited | inhibited | inhibited |  | phosphorylation of FLT3 (TF1-ITD cells): inhibited; PRL-3 protein levels (MOLM-14 cells): inhibited; phosphorylation of FLT3 (MOLM-14 cells): inhibited; phosphorylation of STAT5 (MOLM-14 cells): inhibited; phosphorylation of Src (MOLM-14 cells): inhibited |
| COc1cc(/C=C/C(=O)CC(=O)/C=C/c2ccc(O)c(OC)c2)ccc1O [curcumin] |  |  |  |  | cell number, % of DMSO-treated cells (TF1-PRL-3 cells; 15 μM): around 50% |
| N#CC(=C(/N)Sc1ccccc1N)/C(C#N)=C(\N)Sc1ccccc1N [U0126] |  |  |  | around 50% |  |
| CN(C)S(=O)(=O)c1ccc2c(c1)/C(=C/c1cc3c([nH]1)CCCC3)C(=O)N2 [SU6656] | inhibited | inhibited | inhibited |  |  |
| Oc1c2ccccc2c2c3c(cccc13)N=N2 [SP600125] |  |  |  | around 50% |  |
| CC(C)(C)n1nc(-c2ccc(Cl)cc2)c2c(N)ncnc21 [PP2] | inhibited | inhibited | inhibited |  |  |
